Paper PMC12015663 (Cancer Research Communications, 2025)
Like-named read-outs stand apart in the source and are kept apart here. Each block holds one compound with its values, some of them ahead of it.

How the values were obtained:
[1] = system: pERK in NCI-H1838 (NF1-LOF); experiment: pERK modulation in vitro, MSD ELISA, NCI-H1838; conditions: for extent of the pERK increase: NCI-H1838, compared across type II RAF inhibitors; for EC50: read-out: pERK EC50
Protocol: (§1) MSD ELISA experiments were conducted by WuXi AppTec on whole cell lysates and generated using the Phospho/Total ERK1/2 Assay Whole Cell Lysate Kit (MSD, cat. no. K15107D) according to the manufacturer’s protocol.
(§2) In vitro modulation of pERK levels was assessed in NF1-LOF and BRAF V600E tumor cell lines by MSD ELISA.
(§3) pERK levels were assessed 1 hour after treatment with each of the test compounds or control. Preparation of 96-well plates for MSD ELISA was performed according to the manufacturer’s instructions using the Phospho/Total ERK1/2 Assay Whole Cell Lysate Kit (MSD, cat no. K15107D). The plates were read using the MSD reader (MESO QuickPlex SQ120, cat. no. SQ120, RRID: SCR_020304). The A375 BRAF V600E tumor cell line served as a positive control.
(§4) The percent phosphoprotein in a sample was calculated using MSD phospho-/total multiplex phosphoprotein assays, as well as the following formula: anti-total and anti-phospho assay in the same well: % phosphoprotein = [(2 × phospho signal)/(phospho signal + total signal)] × 100. The ratio of pERK to total ERK was normalized to the ratio of the DMSO control group. EC50 pERK values and concentration response curves were generated using GraphPad Prism software analysis (RRID: SCR_002798).

BRAF wt = system: BRAF wt; parameters: method as in earlier work; conditions: full length human construct; 0.125 nmol/L GST-tagged BRAF wild type, 12.5 nmol/L biotinylated MEK, ATP 50 μmol/L; 41 (TAK-632: ref 26-28); cited from earlier work
CRAF wt = system: CRAF wt; parameters: method as in earlier work; conditions: full length human construct; GST-tagged CRAF wild type, 50 nmol/L biotinylated MEK, ATP 10 μmol/L; 41 (TAK-632: ref 26-28); cited from earlier work
pERK in MeWo (NF1-LOF) = experiment: pERK modulation in vitro, MSD ELISA, MeWo
Protocol: as §1, §2, §3, §4

[2] = system: pERK in sNF96.2 (NF1-LOF); experiment: pERK modulation in vitro, MSD ELISA, sNF96.2; conditions: read-out: pERK EC50
Protocol: as §1, §2, §3, §4

[3] = system: pERK in A375 (BRAF V600E); experiment: pERK modulation in vitro, MSD ELISA, A375; type: cell-based; conditions: A375, BRAF V600E, melanoma, 1 hour after treatment, n = 2, read-out: pERK EC50
Protocol: as §1, §2, §3, §4

ARAF = target: T1, ARAF (Homo sapiens, UniProt P10398); experiment: Time-resolved fluorescence energy transfer binding assay (KINETICfinder); conditions: partial length active recombinant human ARAF at 5 nmol/L; 60 minutes, room temperature; singlicate
T1 sequence (P10398 310-570 limits assumed): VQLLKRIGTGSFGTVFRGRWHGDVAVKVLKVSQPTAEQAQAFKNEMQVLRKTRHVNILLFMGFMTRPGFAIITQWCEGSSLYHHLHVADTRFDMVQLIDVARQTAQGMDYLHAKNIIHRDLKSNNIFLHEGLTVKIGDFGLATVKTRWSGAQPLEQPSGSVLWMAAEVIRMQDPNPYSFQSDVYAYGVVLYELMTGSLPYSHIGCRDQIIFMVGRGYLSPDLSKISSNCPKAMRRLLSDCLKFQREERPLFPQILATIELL
Protocol: Compounds were mixed with assay buffer (50 mmol/L HEPES pH 7.5, 1 mmol/L Ethyleneglycol-bis-(aminoethyl-ether)-N,N,N',N'-tetraacetic acid, 0.01% Brij-35, 10 mmol/L MgCl2, and 2 mmol/L Dithiothreitol), and 5 μL of this solution was transferred to the assay plate. The final concentration of DMSO in the assay was 1%. Hundred percent DMSO was used as a high and low control. Assays were run in singlicate with a reference compound included in each assay to evaluate reproducibility and assay quality.
Wells containing the fluorescent probe, antibody, and target (ARAF) were used as the high reaction control (total binding) and wells containing the probe and antibody were used as the low reaction control (nonspecific binding). […] Next, the substrate antibody solution was added, and the reaction was incubated for 60 minutes at room temperature. Percentage inhibition of each well was calculated using the following formula: % inhibition = 100 − [compound emission ratio (ER) − low control ER/high control ER − low control ER] × 100. Results were fitted to a concentration response curve with a variable slope and constraints of 0 and 100 for bottom and top, respectively, to generate the IC50 values.

A375 = experiment: CellTiter-Glo cell viability assay, A375; conditions: read-out: Proliferation EC50
Protocol: (§5) Next, 2 μL of each concentration was added to 198 μL assay medium (PBS) to create a 10× stock. […] MSD ELISA experiments were conducted by WuXi AppTec on whole cell lysates and generated using the Phospho/Total ERK1/2 Assay Whole Cell Lysate Kit (MSD, cat. no. K15107D) according to the manufacturer’s protocol.
(§6) The in vitro anti-proliferation effect of each of the test compounds was assessed in NF1-LOF and BRAF V600E tumor cell lines cultured as a monolayer using the CellTiter-Glo (CTG) cell viability assay. Cell culture experiments were performed with duplicate wells. Cell concentrations were adjusted for cell density (seeding density of 5,000 for sNF96.2 and MeWo; 6,000 for NCI-H1838; and 2,500 for A375) prior to plating onto a 96-well assay plate and incubated overnight at 37°C with 5% CO2, 95% air, and 100% relative humidity.
(§7) Anti-proliferative activity was assessed after 72 hours of treatment with the test compound or control. […] DMSO was also applied as a control on days 2 and 3. The final DMSO concentration for all test compounds and vehicle control was 0.1%. The A375 BRAF V600E tumor cell line served as a positive control. Preparation of 96-well plates for CTG assays was performed according to the manufacturer’s instructions using the CTG Luminescent Cell Viability Assay Kit (Promega, RRID: SCR_006724, cat. no. G7573). Luminescence was measured on day 3 using the 2104 EnVision Multilabel Reader (PerkinElmer).
(§8) The inhibition rate of the tested compounds was determined using the following formula: inhibition rate (%) = (1 − [relative luminescence unit (RLU) compound − RLU blank])/(RLU control − RLU blank) × 100. EC50 proliferation values were generated using GraphPad Prism software analysis.

sNF96.2 = experiment: CellTiter-Glo cell viability assay, sNF96.2; conditions: read-out: Proliferation EC50
Protocol: as §5, §6, §7, §8

MeWo = experiment: CellTiter-Glo cell viability assay, MeWo
Protocol: as §5, §6, §7, §8

NCI-H1838 = experiment: CellTiter-Glo cell viability assay, NCI-H1838; conditions: read-out: Proliferation EC50
Protocol: as §5, §6, §7, §8

NF1-LOF tumor cell lines = experiment: CellTiter-Glo cell viability assay, statement on all three NF1-LOF tumor cell lines; conditions: CTG 72 hours
Protocol: as §5, §6
Anti-proliferative activity was assessed after 72 hours of treatment with the test compound or control. […] DMSO was also applied as a control on days 2 and 3. The final DMSO concentration for all test compounds and vehicle control was 0.1%. […] Luminescence was measured on day 3 using the 2104 EnVision Multilabel Reader (PerkinElmer).
The inhibition rate of the tested compounds was determined using the following formula: inhibition rate (%) = (1 − [relative luminescence unit (RLU) compound − RLU blank])/(RLU control − RLU blank) × 100. […]

Compound: O=C1CCc2c(Oc3ccc4c(c3)[C@@H]3[C@H](O4)[C@H]3c3nc4ccc(C(F)(F)F)cc4[nH]3)ccnc2N1 [BGB-283]
extent of the pERK increase ([1]; 1 hour after treatment): higher extent

Compound: Cc1ccc2c(Nc3cccc(Cl)c3F)nccc2c1NC(=O)c1csc2c(N)ncnc12 [Belvarafenib]
extent of the pERK increase ([1]; 1 hour after treatment): lesser extent

Compound: Cc1ccc(NC(=O)c2ccnc(C(F)(F)F)c2)cc1-c1cc(OCCO)nc(N2CCOCC2)c1 [LXH254]
extent of the pERK increase ([1]; 1 hour after treatment): lesser extent

Compound: N#Cc1c(Oc2ccc(F)c(NC(=O)Cc3cccc(C(F)(F)F)c3)c2)ccc2nc(NC(=O)C3CC3)sc12 [TAK-632]
IC50 (BRAF wt): 8.3 nM | IC50 (CRAF wt): 1.4 nM | EC50 (pERK in MeWo (NF1-LOF); read-out: pERK EC50, NF1-LOF, melanoma, 1 hour after treatment, n = 2): 1600 nM | EC50 ([2]; sNF96.2, NF1-LOF, MPNST, 1 hour after treatment, n = 2): 750 nM | extent of the pERK increase ([1]; 1 hour after treatment): lesser extent | EC50 ([1]; NCI-H1838, NF1-LOF, lung, 1 hour after treatment, n = 1): 1250 nM | EC50 [3]: 30 nM | IC50 (ARAF): 215 nM | EC50 (A375; A375, CTG 72 hours after treatment, repeated application of tovorafenib): 70 nM | EC50 (sNF96.2; sNF96.2, CTG 72 hours after treatment, repeated application of tovorafenib): 2.4 µM | EC50 (MeWo; read-out: Proliferation EC50, CTG 72 hours after treatment, repeated application of tovorafenib): 4.1 µM | EC50 (NCI-H1838; NCI-H1838, CTG 72 hours after treatment, n = 1, repeated application of tovorafenib): 3.3 µM

EC50 (pERK in MeWo (NF1-LOF); Homo sapiens, 1 h, read-out: pERK EC50): > 10000 nM | EC50 ([2]; SNF96.2, 1 h): > 10000 nM | EC50 ([1]; Homo sapiens, NCI-H1838, 1 h): > 10000 nM | EC50 ([3]; Homo sapiens, A-375): 20 nM | EC50 (A375; Homo sapiens, A-375, 72 h): 90 nM | EC50 (NCI-H1838; Homo sapiens, NCI-H1838, 72 h): > 10 µM
Compound: CCCS(=O)(=O)Nc1ccc(F)c(C(=O)c2c[nH]c3ncc(-c4ccc(Cl)cc4)cc23)c1F [Vemurafenib]
sensitivity of cell lines (NF1-LOF tumor cell lines): insensitive | EC50 (sNF96.2; SNF96.2, 72 h): 6 µM | EC50 (MeWo; Homo sapiens, 72 h, read-out: Proliferation EC50): 4.5 µM
